Test systems include SW-620 colon; COLO 205 colon; HT29 colon; NCI-H522 lung; LOX IMVI melanoma; 786-0 renal; SNB-19 CNS; M14 melanoma; RPMI-8226 leukemia; U251 CNS.
Test in all cases: DTP human tumour cell line panel, 48 h

Experimental findings from PubChem BioAssay (NCI) are described below.

Values joined by “and” are separate entries in the source; they are usually repeats but may differ in a detail not shown here. Equal values may be shown once.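 Results reflect a 48-hour exposure of cells in 96-well plates to compound at five concentrations. Abbreviation: GI50, concentration required for 50% inhibition of growth. TGI: concentration producing complete growth inhibition.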

For the molecule `O=S(=O)(O)c1cc(O)c(N=Nc2ccc(O)cc2O)c2ccccc12`, the TGI is > 100 µM in the test with SW-620 colon; > 100 µM with COLO 205 colon; > 100 µM in the test with HT29 colon; 95.4 µM in the test on NCI-H522 lung; > 100 µM with LOX IMVI melanoma; > 100 µM in the test with 786-0 renal. Moreover, the TGI in the test with SNB-19 CNS, in the test on M14 melanoma, in the test with RPMI-8226 leukemia and with U251 CNS was > 100 µM throughout.

On to `COc1cc(Nc2ncc(-c3ccccc3)o2)cc(OC)c1`, for which the GI50 in the test on SW-620 colon, with COLO 205 colon, with HT29 colon, in the test with NCI-H522 lung, with LOX IMVI melanoma and in the test on 786-0 renal was > 25 µM each time. Moreover, the GI50 with SNB-19 CNS, with M14 melanoma, in the test on RPMI-8226 leukemia and in the test with U251 CNS was > 25 µM each time. For the same molecule, the TGI with SW-620 colon, in the test with COLO 205 colon, in the test on HT29 colon, in the test on NCI-H522 lung, with LOX IMVI melanoma and in the test on 786-0 renal was > 25 µM throughout. In addition, the TGI in the test on SNB-19 CNS, in the test on M14 melanoma, with RPMI-8226 leukemia and in the test with U251 CNS was > 25 µM each time.

Take `O=C([CH-]C(=O)c1ccccc1)c1ccccc1.[CH-]1CCCCC1.[CH-]1CCCCC1.[CH-]1CCCCC1.[Sn+4]`: the GI50 with SW-620 colon was 3 µM; with COLO 205 colon, 4.15 µM; in the test on HT29 colon it was 14 µM; in the test with NCI-H522 lung, 2.03 µM; in the test with LOX IMVI melanoma it was 4.61 µM; with 786-0 renal, 4.25 µM. Further, the GI50 in the test with SNB-19 CNS is 5.43 µM; with M14 melanoma, 8.3 µM; with RPMI-8226 leukemia it was 2.32 µM; in the test with U251 CNS it was 6.86 µM. In addition, the TGI in the test on SW-620 colon stood at 9.72 µM; with COLO 205 colon, 16.2 µM; in the test on HT29 colon, 38.5 µM; in the test on NCI-H522 lung, 5.26 µM; with LOX IMVI melanoma, 18.9 µM; in the test on 786-0 renal, 15.1 µM. Further, the TGI in the test on SNB-19 CNS amounted to 18.4 µM; in the test with M14 melanoma, 22.4 µM; with RPMI-8226 leukemia, 5.22 µM; in the test with U251 CNS, 20.8 µM.

For the molecule `CC1(C)CNc2cc(NC(=O)c3cccnc3NCc3ccncc3)ccc21`, the GI50 is 48.2 µM with SW-620 colon; 34.2 µM with COLO 205 colon; 32.2 µM with HT29 colon; 25.7 µM in the test on NCI-H522 lung; 23.3 µM in the test on LOX IMVI melanoma; 45.1 µM in the test on 786-0 renal. In addition, the GI50 was 48.4 µM in the test on SNB-19 CNS, 20.2 µM with M14 melanoma, 21.9 µM in the test on RPMI-8226 leukemia and 39.1 µM in the test with U251 CNS. The TGI in the test on SW-620 colon was > 100 µM; with COLO 205 colon, > 100 µM; with HT29 colon, > 100 µM; in the test on NCI-H522 lung, > 95.4 µM; in the test on LOX IMVI melanoma it was > 100 µM; with 786-0 renal it was > 100 µM. Moreover, the TGI in the test with SNB-19 CNS is > 100 µM; with M14 melanoma, 88.6 µM; in the test on RPMI-8226 leukemia it was > 100 µM; in the test on U251 CNS, > 100 µM.

In the case of `COc1ccc2c3c([nH]c2c1[N+](=O)[O-])C(C)N(Cc1ccccc1)CC3` (stereo not given), the TGI in the test with SW-620 colon was > 100 µM; in the test on COLO 205 colon it was > 100 µM; in the test on HT29 colon, 13.7 µM; in the test on LOX IMVI melanoma, > 100 µM; in the test with 786-0 renal, > 100 µM; in the test with SNB-19 CNS, > 100 µM. For the same molecule, the TGI is 28.1 µM in the test with M14 melanoma, 7.56 µM in the test on RPMI-8226 leukemia and 8.73 µM with U251 CNS.

As to `CC(N)(Cc1c[nH]c2cccc(F)c12)C(=O)O` (stereo not given), the GI50 in the test on SW-620 colon, in the test with HT29 colon, in the test with NCI-H522 lung, in the test on LOX IMVI melanoma, with 786-0 renal and with SNB-19 CNS was > 1000 µM throughout. The GI50 with M14 melanoma, in the test on RPMI-8226 leukemia and in the test with U251 CNS was > 1000 µM in each case. Further, the TGI in the test with SW-620 colon, with HT29 colon, in the test with NCI-H522 lung, in the test with LOX IMVI melanoma, in the test with 786-0 renal and in the test with SNB-19 CNS was > 1000 µM in each case. Besides, the TGI in the test with M14 melanoma, with RPMI-8226 leukemia and in the test with U251 CNS was > 1000 µM in each case.

On to `OC(COC(c1ccccc1)(c1ccccc1)c1ccccc1)C(O)CC1SCCS1` (stereo not given), for which the TGI with SW-620 colon is > 100 µM; with COLO 205 colon, 38.4 µM; in the test on HT29 colon, 34.3 µM; with LOX IMVI melanoma, 32 µM; in the test on 786-0 renal, 39.7 µM; with SNB-19 CNS it was 54.9 µM. The TGI was found to be 84.3 µM in the test on M14 melanoma, 34.2 µM with RPMI-8226 leukemia and 62.4 µM in the test with U251 CNS.

As for `Cc1ccc(/C=N/Nc2nc(Nc3ccccc3)nc(-n3nc(C)cc3C)n2)cc1`, the GI50 in the test with SW-620 colon was 5.75 µM; with COLO 205 colon, 3.6 µM; in the test with HT29 colon it was 3.55 µM; with NCI-H522 lung it was 2.67 µM; in the test with LOX IMVI melanoma, 3.81 µM; in the test with 786-0 renal it was 3.7 µM. Further, the values for the GI50 with M14 melanoma, in the test on RPMI-8226 leukemia and with U251 CNS were 2.47 µM, 3.19 µM and 4.88 µM, respectively. In addition, the TGI with SW-620 colon is > 100 µM; in the test with COLO 205 colon, 13.4 µM; in the test on HT29 colon, > 100 µM; in the test on NCI-H522 lung, 6.48 µM; with LOX IMVI melanoma, 22.1 µM; in the test with 786-0 renal, 36.9 µM. Besides, the figures for the TGI in the test on M14 melanoma, in the test on RPMI-8226 leukemia and in the test on U251 CNS were 10.8 µM, 12.9 µM and > 100 µM, respectively.

As for `CCCCCCCCCCCCCCCCCCn1cc[n+](C)c1`, the GI50 in the test with SW-620 colon was 0.624 µM; in the test on COLO 205 colon, 0.35 µM; with HT29 colon, 0.403 µM and 0.358 µM; with LOX IMVI melanoma it was 0.189 µM and 0.406 µM; in the test on 786-0 renal it was 0.952 µM; with SNB-19 CNS, 1.22 µM and 1.18 µM. The concentration for 50% growth inhibition (GI50) in the test on RPMI-8226 leukemia was 0.0268 µM; with U251 CNS, 0.372 µM and 0.397 µM. Further, the TGI is 1.96 µM in the test with SW-620 colon; 1.28 µM in the test on COLO 205 colon; 1.64 µM and 1.45 µM in the test on HT29 colon; 0.479 µM and 1.75 µM in the test with LOX IMVI melanoma; 3.32 µM in the test on 786-0 renal; 3.57 µM and 2.42 µM with SNB-19 CNS. Moreover, the concentration for total growth inhibition (TGI) was found to be 0.233 µM in the test with RPMI-8226 leukemia and 1.51 µM in the test with U251 CNS.
